Assay results: patent US20230085307A1, “PYRIDAZINONE COMPOUND AND HERBICIDE” (NISSAN CHEMICAL CORPORATION, priority 2019, published 2023)

What was measured:
late watergrass [1] = test: Test Example 1: herbicidal activity, application before weed generation under submerged conditions (Table 16, symbol A); format: in vivo, late watergrass (Echinochloa oryzicola); conditions: for Herbicidal effect on A: late watergrass (grade 0-5): 320 g/ha applied herbicide; for Herbicidal effect, A: late watergrass: amount of applied herbicide 320 g/ha
In short: (§1)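 Submerged Wagner pots (alluvial soil, 4 cm water) sown with weed seeds and planted with 2.5-leaf rice seedlings; emulsifiable concentrate diluted in water applied to water surface on sowing day. Held in greenhouse at 25-30 °C; injury scored 0-5 by herbicidal rate after three weeks.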

Japanese bulrush [2] = test: Test Example 1: herbicidal activity, application before weed generation under submerged conditions (Table 16, symbol B); format: in vivo, Japanese bulrush (Schoenoplectus juncoides); conditions: for Herbicidal effect on B: Japanese bulrush (grade 0-5): 320 g/ha applied herbicide; for Herbicidal effect, B: Japanese bulrush: amount of applied herbicide 320 g/ha
In short: as §1

oval-leafed pondweed [3] = test: Test Example 1: herbicidal activity, application before weed generation under submerged conditions (Table 16, symbol C); format: in vivo, oval-leafed pondweed (Monochoria vaginalis); conditions: for Herbicidal effect on C: oval-leafed pondweed (grade 0-5): 320 g/ha applied herbicide; for Herbicidal effect, C: oval-leafed pondweed: amount of applied herbicide 320 g/ha
In short: as §1

late watergrass [4] = test: Test Example 2: herbicidal activity, application during weed generation under submerged conditions (Table 17, symbol A); format: in vivo, late watergrass (Echinochloa oryzicola); conditions: for herbicidal effect rating, A: late watergrass: AAH 320 g/ha, application during weed generation, submerged conditions
In short: (§2)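 Wagner pot, alluvial soil, 4 cm flood; mixed sowing of all species; greenhouse 25° C.–30° C. Emulsifiable formulation, water-diluted to predetermined dose, applied to paddy water at 1–2 leaf stage. Effect rated at 3 wk using the earlier test's scoring criteria.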

Japanese bulrush [5] = test: Test Example 2: herbicidal activity, application during weed generation under submerged conditions (Table 17, symbol B); format: in vivo, Japanese bulrush (Schoenoplectus juncoides); conditions: for herbicidal effect rating, B: Japanese bulrush: AAH 320 g/ha, application during weed generation, submerged conditions
In short: as §2

oval-leafed pondweed [6] = test: Test Example 2: herbicidal activity, application during weed generation under submerged conditions (Table 17, symbol C); format: in vivo, oval-leafed pondweed (Monochoria vaginalis); conditions: for herbicidal effect rating, C: oval-leafed pondweed: AAH 320 g/ha, application during weed generation, submerged conditions
In short: as §2

barnyard grass [7] = test: Test Example 3: herbicidal effect by foliage application, Wagner pot (Table 18, symbol H); format: in vivo, barnyard grass (Echinochloa crus-galli); conditions: for herbicidal effect on barnyard grass (H): 320 g/ha
In short: (§3)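 Plants were sown in alluvial soil held under 0.1–0.5 cm standing water and grown 14 days in a greenhouse at 25–30 °C. An emulsifiable formulation, water-diluted to the set dose, was then sprayed onto the foliage, and effects were scored three weeks later using previously defined criteria.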

Chinese sprangletop = test: Test Example 3: herbicidal effect by foliage application, Wagner pot (Table 18, symbol D); format: in vivo, chinese sprangletop (Leptochloa chinensis); conditions: for herbicidal effect on Chinese sprangletop (D): 320 g/ha
In short: as §3

rice flat sedge = test: Test Example 3: herbicidal effect by foliage application, Wagner pot (Table 18, symbol E); format: in vivo, rice flat sedge (Cyperus iria); conditions: for herbicidal effect on rice flat sedge (E): 320 g/ha
In short: as §3

southern crabgrass = test: Test Example 5: herbicidal effect by foliage application, plastic box (Table 20, symbol F); format: in vivo, southern crabgrass (Digitaria ciliaris); conditions: foliage application, 320 g/ha, three weeks after application
In short: (§4)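 Foliar spray test: emulsion formulation diluted in water to a set application rate, sprayed onto 14-day-old plants raised in diluvial soil at 25° C to 30° C under glass. Both herbicidal effect and crop effect rated visually three weeks later.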

green foxtail = test: Test Example 5: herbicidal effect by foliage application, plastic box (Table 20, symbol G); format: in vivo, green foxtail (Setaria viridis); conditions: foliage application, 320 g/ha, three weeks after application
In short: as §4

barnyard grass [8] = test: Test Example 5: herbicidal effect by foliage application, plastic box (Table 20, symbol H); format: in vivo, barnyard grass (Echinochloa crus-galli); conditions: foliage application, 320 g/ha, three weeks after application
In short: as §4

wild oat = test: Test Example 5: herbicidal effect by foliage application, plastic box (Table 20, symbol I); format: in vivo, wild oat (Avena fatua); conditions: foliage application, 320 g/ha, three weeks after application
In short: as §4

blackgrass = test: Test Example 5: herbicidal effect by foliage application, plastic box (Table 20, symbol J); format: in vivo, blackgrass (Alopecurus myosuroides); conditions: foliage application, 320 g/ha, three weeks after application
In short: as §4

Italian ryegrass = test: Test Example 5: herbicidal effect by foliage application, plastic box (Table 20, symbol K); format: in vivo, Italian ryegrass (Lolium multiflorum); conditions: foliage application, 320 g/ha, three weeks after application
In short: as §4

windgrass = test: Test Example 5: herbicidal effect by foliage application, plastic box (Table 20, symbol L); format: in vivo, windgrass (Apera spica-venti); conditions: foliage application, 320 g/ha, three weeks after application
In short: as §4

velvetleaf = test: Test Example 5: herbicidal effect by foliage application, plastic box (Table 20, symbol M); format: in vivo, velvetleaf (Abutilon theophrasti); conditions: foliage application, 320 g/ha, three weeks after application
In short: as §4

lambsquarters = test: Test Example 5: herbicidal effect by foliage application, plastic box (Table 20, symbol O); format: in vivo, lambsquarters (Chenopodium album); conditions: foliage application, 320 g/ha, three weeks after application
In short: as §4

persian speedwell = test: Test Example 5: herbicidal effect by foliage application, plastic box (Table 20, symbol R); format: in vivo, Persian speedwell (Veronica persica); conditions: foliage application, 320 g/ha, three weeks after application
In short: as §4

[9] = amount of applied herbicide 320 g/ha
[10] = application during weed generation under submerged conditions, amount of applied herbicide 320 g/ha

Row | SMILES | Herbicidal effect on A: late watergrass (grade 0-5) (late watergrass [1]) | Herbicidal effect on B: Japanese bulrush (grade 0-5) (Japanese bulrush [2]) | Herbicidal effect on C: oval-leafed pondweed (grade 0-5) (oval-leafed pondweed [3]) | herbicidal effect rating, A: late watergrass (late watergrass [4]) | herbicidal effect rating, B: Japanese bulrush (Japanese bulrush [5]) | herbicidal effect rating, C: oval-leafed pondweed (oval-leafed pondweed [6]) | herbicidal effect on H: barnyard grass (barnyard grass [7]; [9]) | herbicidal effect on D: Chinese sprangletop (Chinese sprangletop; [9]) | herbicidal effect on E: rice flat sedge (rice flat sedge; [9]) | Herbicidal effect, A: late watergrass (late watergrass [1]) | Herbicidal effect, B: Japanese bulrush (Japanese bulrush [2]) | Herbicidal effect, C: oval-leafed pondweed (oval-leafed pondweed [3]) | herbicidal effect on barnyard grass (H) (barnyard grass [7]) | herbicidal effect on Chinese sprangletop (D) (Chinese sprangletop) | herbicidal effect on rice flat sedge (E) (rice flat sedge) | herbicidal effect on southern crabgrass (F) (southern crabgrass) | herbicidal effect on green foxtail (G) (green foxtail) | herbicidal effect on barnyard grass (H) (barnyard grass [8]) | herbicidal effect on wild oat (I) (wild oat) | herbicidal effect on blackgrass (J) (blackgrass) | further results
1 | Cc1nn(C)c(=O)c(-c2c(-c3ccc(CS(C)(=O)=O)cc3)sc3ccc(F)cc23)c1O [2-334] | 3 (Herbicidal rate of 40% or more and less than 70%) | 0 (Herbicidal rate of 5% or less (almost no effect)) | 0 (Herbicidal rate of 5% or less (almost no effect)) | 3 (Herbicidal rate of 40% or more and less than 70%) | 0 (Herbicidal rate of 5% or less (almost no effect)) | 0 (Herbicidal rate of 5% or less (almost no effect)) | 5 (Herbicidal rate of 90% or more (almost completely withered)) | 4 (Herbicidal rate of 70% or more and less than 90%) | 5 (Herbicidal rate of 90% or more (almost completely withered)) | – | – | – | – | – | – | – | – | – | – | – | –
2 | CCCC(=O)Oc1c(C)nn(C)c(=O)c1-c1c(-c2ccc(C(F)(F)F)cc2Cl)sc2ccc(F)cc12 [2-357] | 4 (Herbicidal rate of 70% or more and less than 90%) | 2 (Herbicidal rate of 20% or more and less than 40%) | 0 (Herbicidal rate of 5% or less (almost no effect)) | 2 (Herbicidal rate of 20% or more and less than 40%) | 0 (Herbicidal rate of 5% or less (almost no effect)) | 0 (Herbicidal rate of 5% or less (almost no effect)) | 5 (Herbicidal rate of 90% or more (almost completely withered)) | 3 (Herbicidal rate of 40% or more and less than 70%) | 2 (Herbicidal rate of 20% or more and less than 40%) | – | – | – | – | – | – | – | – | – | – | – | –
3 | COc1cc(OC)cc(-c2sc3ccc(F)cc3c2-c2c(O)c(C)nn(C)c2=O)c1 [2-360] | 3 (Herbicidal rate of 40% or more and less than 70%) | 2 (Herbicidal rate of 20% or more and less than 40%) | 0 (Herbicidal rate of 5% or less (almost no effect)) | 2 (Herbicidal rate of 20% or more and less than 40%) | 0 (Herbicidal rate of 5% or less (almost no effect)) | 0 (Herbicidal rate of 5% or less (almost no effect)) | 5 (Herbicidal rate of 90% or more (almost completely withered)) | 4 (Herbicidal rate of 70% or more and less than 90%) | 3 (Herbicidal rate of 40% or more and less than 70%) | – | – | – | – | – | – | – | – | – | – | – | –
4 | CCCC(=O)Oc1c(C)nn(C)c(=O)c1-c1c(-c2ccc(OC)cc2)sc2cc(C)c(C)cc12 [5-093] | – | – | – | 2 (Herbicidal rate of 20% or more and less than 40%) | 0 (Herbicidal rate of 5% or less (almost no effect)) | 0 (Herbicidal rate of 5% or less (almost no effect)) | – | – | – | 2 (Herbicidal rate of 20% or more and less than 40%) | 0 (Herbicidal rate of 5% or less (almost no effect)) | 0 (Herbicidal rate of 5% or less (almost no effect)) | 1 (Herbicidal rate of 5% or more and less than 20%) | 2 (Herbicidal rate of 20% or more and less than 40%) | 2 (Herbicidal rate of 20% or more and less than 40%) | 0 (Herbicidal rate of 5% or less (almost no effect)) | 0 (Herbicidal rate of 5% or less (almost no effect)) | 0 (Herbicidal rate of 5% or less (almost no effect)) | 0 (Herbicidal rate of 5% or less (almost no effect)) | 0 (Herbicidal rate of 5% or less (almost no effect)) | herbicidal effect on Italian ryegrass (K) (Italian ryegrass): 0 (Herbicidal rate of 5% or less (almost no effect)); herbicidal effect on windgrass (L) (windgrass): 0 (Herbicidal rate of 5% or less (almost no effect)); herbicidal effect on velvetleaf (M) (velvetleaf): 1 (Herbicidal rate of 5% or more and less than 20%); herbicidal effect on lambsquarters (O) (lambsquarters): 3 (Herbicidal rate of 40% or more and less than 70%); herbicidal effect on persian speedwell (R) (persian speedwell): 0 (Herbicidal rate of 5% or less (almost no effect))
5 | CCCC(=O)Oc1c(C)nn(C)c(=O)c1-c1c(-c2ccc(F)cc2OCC)sc2cc(C)c(C)cc12 [5-104] | – | – | – | 4 (Herbicidal rate of 70% or more and less than 90%) | 4 (Herbicidal rate of 70% or more and less than 90%) | 4 (Herbicidal rate of 70% or more and less than 90%) | – | – | – | 4 (Herbicidal rate of 70% or more and less than 90%) | 0 (Herbicidal rate of 5% or less (almost no effect)) | 0 (Herbicidal rate of 5% or less (almost no effect)) | 5 (Herbicidal rate of 90% or more (almost completely withered)) | 5 (Herbicidal rate of 90% or more (almost completely withered)) | 4 (Herbicidal rate of 70% or more and less than 90%) | 5 (Herbicidal rate of 90% or more (almost completely withered)) | 4 (Herbicidal rate of 70% or more and less than 90%) | 4 (Herbicidal rate of 70% or more and less than 90%) | 4 (Herbicidal rate of 70% or more and less than 90%) | 4 (Herbicidal rate of 70% or more and less than 90%) | herbicidal effect on Italian ryegrass (K) (Italian ryegrass): 4 (Herbicidal rate of 70% or more and less than 90%); herbicidal effect on windgrass (L) (windgrass): 4 (Herbicidal rate of 70% or more and less than 90%); herbicidal effect on velvetleaf (M) (velvetleaf): 4 (Herbicidal rate of 70% or more and less than 90%); herbicidal effect on lambsquarters (O) (lambsquarters): 4 (Herbicidal rate of 70% or more and less than 90%); herbicidal effect on persian speedwell (R) (persian speedwell): 5 (Herbicidal rate of 90% or more (almost completely withered))
6 | CCCC(=O)Oc1c(C)nn(C)c(=O)c1-c1c(-c2ccc(OCCOC)cc2)oc2ccc(C)cc12 [9-064] | – | – | – | – | – | – | – | – | – | 5 (Herbicidal rate of 90% or more (almost completely withered)) | 5 (Herbicidal rate of 90% or more (almost completely withered)) | 5 (Herbicidal rate of 90% or more (almost completely withered)) | – | – | – | – | – | – | – | – | herbicidal effect grade, A: late watergrass (late watergrass [4]; [10]): 4 (Herbicidal rate of 70% or more and less than 90%); herbicidal effect grade, B: Japanese bulrush (Japanese bulrush [5]; [10]): 3 (Herbicidal rate of 40% or more and less than 70%); herbicidal effect grade, C: oval-leafed pondweed (oval-leafed pondweed [6]; [10]): 4 (Herbicidal rate of 70% or more and less than 90%); Herbicidal effect on H (barnyard grass), foliage application (barnyard grass [7]; [9]): 5 (Herbicidal rate of 90% or more (almost completely withered)); Herbicidal effect on D (Chinese sprangletop), foliage application (Chinese sprangletop; [9]): 1 (Herbicidal rate of 5% or more and less than 20%); Herbicidal effect on E (rice flat sedge), foliage application (rice flat sedge; [9]): 5 (Herbicidal rate of 90% or more (almost completely withered))
